Experimental data published in PMC11345841, “Exploring 2-Sulfonylpyrimidine Warheads as Acrylamide Surrogates for Targeted Covalent Inhibition: A BTK Story” (Journal of Medicinal Chemistry, 2024).
Read-outs that look alike come from different tables or passages of the source.

Columns and labels:
Assay in all cases: KINOMEscan ScanTK
Assay type in all cases: binding
[1] = target: T1, TYRO3 (Homo sapiens, UniProt Q06418)
T1 construct: purchased Eurofins DiscoverX KINOMEscan (scanTK)
T1 sequence (Q06418 41-890): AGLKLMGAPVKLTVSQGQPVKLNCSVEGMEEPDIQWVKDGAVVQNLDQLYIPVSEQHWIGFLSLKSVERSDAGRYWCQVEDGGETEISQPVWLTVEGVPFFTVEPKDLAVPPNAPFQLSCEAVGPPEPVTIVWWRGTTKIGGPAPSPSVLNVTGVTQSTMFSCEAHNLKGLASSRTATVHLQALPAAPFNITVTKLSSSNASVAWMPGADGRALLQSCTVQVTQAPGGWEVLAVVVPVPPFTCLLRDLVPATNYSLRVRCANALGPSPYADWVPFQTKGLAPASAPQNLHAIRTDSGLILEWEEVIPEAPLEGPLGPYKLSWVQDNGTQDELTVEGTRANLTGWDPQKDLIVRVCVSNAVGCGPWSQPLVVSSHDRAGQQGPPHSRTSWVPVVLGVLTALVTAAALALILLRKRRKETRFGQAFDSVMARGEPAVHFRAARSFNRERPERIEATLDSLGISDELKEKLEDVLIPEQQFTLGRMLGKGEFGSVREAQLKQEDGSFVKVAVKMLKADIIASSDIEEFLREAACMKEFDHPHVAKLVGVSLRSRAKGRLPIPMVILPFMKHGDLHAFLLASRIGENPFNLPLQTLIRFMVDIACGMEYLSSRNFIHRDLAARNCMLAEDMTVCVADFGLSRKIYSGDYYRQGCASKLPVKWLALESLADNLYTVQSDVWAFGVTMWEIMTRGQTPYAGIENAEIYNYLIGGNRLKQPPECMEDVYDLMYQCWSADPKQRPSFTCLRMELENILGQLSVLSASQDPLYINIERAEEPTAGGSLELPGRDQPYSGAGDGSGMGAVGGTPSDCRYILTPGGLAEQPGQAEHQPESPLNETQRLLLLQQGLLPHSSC

[2] = target: T2, KIT-autoinhibited (Homo sapiens, UniProt P10721)
T2 construct: purchased Eurofins DiscoverX KINOMEscan (scanTK)

[3] = target: T3, RET(V804L) (Homo sapiens, UniProt P07949, V804L)
T3 construct: purchased Eurofins DiscoverX KINOMEscan (scanTK)

[4] = target: T4, FGFR3(G697C) (Homo sapiens, UniProt P22607, G697C)
T4 construct: purchased Eurofins DiscoverX KINOMEscan (scanTK)

[5] = target: T5, INSR (Homo sapiens, UniProt P06213)
T5 construct: purchased Eurofins DiscoverX KINOMEscan (scanTK)

[6] = target: T6, ITK (Homo sapiens, UniProt Q08881)
T6 construct: purchased Eurofins DiscoverX KINOMEscan (scanTK)
T6 sequence (Q08881 1-620): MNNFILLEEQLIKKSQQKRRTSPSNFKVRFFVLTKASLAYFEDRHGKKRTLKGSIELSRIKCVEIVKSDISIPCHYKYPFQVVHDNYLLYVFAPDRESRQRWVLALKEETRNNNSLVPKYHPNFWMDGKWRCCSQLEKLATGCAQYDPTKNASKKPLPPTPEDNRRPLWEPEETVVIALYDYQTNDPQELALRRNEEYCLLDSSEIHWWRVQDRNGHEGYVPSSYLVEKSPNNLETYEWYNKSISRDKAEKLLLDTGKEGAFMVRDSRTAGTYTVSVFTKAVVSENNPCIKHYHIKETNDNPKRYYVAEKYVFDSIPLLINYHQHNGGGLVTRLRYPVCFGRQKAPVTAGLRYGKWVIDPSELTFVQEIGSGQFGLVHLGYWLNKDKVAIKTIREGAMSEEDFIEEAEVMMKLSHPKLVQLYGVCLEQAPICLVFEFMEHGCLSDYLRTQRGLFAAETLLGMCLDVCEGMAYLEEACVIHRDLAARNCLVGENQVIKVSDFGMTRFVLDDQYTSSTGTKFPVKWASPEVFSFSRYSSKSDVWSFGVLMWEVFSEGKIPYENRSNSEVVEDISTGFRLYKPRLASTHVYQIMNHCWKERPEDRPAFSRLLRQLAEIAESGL

[7] = target: T7, FER (Homo sapiens, UniProt P16591)
T7 construct: purchased Eurofins DiscoverX KINOMEscan (scanTK)

[8] = target: T8, FYN (Homo sapiens, UniProt P06241)
T8 construct: purchased Eurofins DiscoverX KINOMEscan (scanTK)

[9] = target: T9, FGFR1 (Homo sapiens, UniProt P11362)
T9 construct: purchased Eurofins DiscoverX KINOMEscan (scanTK)

[10] = target: T10, TIE1 (Homo sapiens, UniProt P35590)
T10 construct: purchased Eurofins DiscoverX KINOMEscan (scanTK)

[11] = target: T11, MET (Homo sapiens, UniProt P08581)
T11 construct: purchased Eurofins DiscoverX KINOMEscan (scanTK)

[12] = target: T12, ABL1(Y253F)-phosphorylated (Homo sapiens, UniProt P00519, Y253F)
T12 construct: purchased Eurofins DiscoverX KINOMEscan (scanTK)

[13] = target: T13, ERBB3 (Homo sapiens, UniProt P21860); details: ERBB3
T13 construct: purchased Eurofins DiscoverX KINOMEscan (scanTK)

[14] = target: T14, ALK(L1196M) (Homo sapiens, UniProt Q9UM73, L1196M)
T14 construct: purchased Eurofins DiscoverX KINOMEscan (scanTK)

[15] = target: T15, SRMS (Homo sapiens, UniProt Q9H3Y6); details: SRMS
T15 construct: purchased Eurofins DiscoverX KINOMEscan (scanTK)

[16] = target: T16, ABL1(F317I)-nonphosphorylated (Homo sapiens, UniProt P00519, F317I)
T16 construct: purchased Eurofins DiscoverX KINOMEscan (scanTK)

[17] = target: T17, FLT1 (Homo sapiens, UniProt P17948)
T17 construct: purchased Eurofins DiscoverX KINOMEscan (scanTK)

T13 sequence (P21860 20-1342): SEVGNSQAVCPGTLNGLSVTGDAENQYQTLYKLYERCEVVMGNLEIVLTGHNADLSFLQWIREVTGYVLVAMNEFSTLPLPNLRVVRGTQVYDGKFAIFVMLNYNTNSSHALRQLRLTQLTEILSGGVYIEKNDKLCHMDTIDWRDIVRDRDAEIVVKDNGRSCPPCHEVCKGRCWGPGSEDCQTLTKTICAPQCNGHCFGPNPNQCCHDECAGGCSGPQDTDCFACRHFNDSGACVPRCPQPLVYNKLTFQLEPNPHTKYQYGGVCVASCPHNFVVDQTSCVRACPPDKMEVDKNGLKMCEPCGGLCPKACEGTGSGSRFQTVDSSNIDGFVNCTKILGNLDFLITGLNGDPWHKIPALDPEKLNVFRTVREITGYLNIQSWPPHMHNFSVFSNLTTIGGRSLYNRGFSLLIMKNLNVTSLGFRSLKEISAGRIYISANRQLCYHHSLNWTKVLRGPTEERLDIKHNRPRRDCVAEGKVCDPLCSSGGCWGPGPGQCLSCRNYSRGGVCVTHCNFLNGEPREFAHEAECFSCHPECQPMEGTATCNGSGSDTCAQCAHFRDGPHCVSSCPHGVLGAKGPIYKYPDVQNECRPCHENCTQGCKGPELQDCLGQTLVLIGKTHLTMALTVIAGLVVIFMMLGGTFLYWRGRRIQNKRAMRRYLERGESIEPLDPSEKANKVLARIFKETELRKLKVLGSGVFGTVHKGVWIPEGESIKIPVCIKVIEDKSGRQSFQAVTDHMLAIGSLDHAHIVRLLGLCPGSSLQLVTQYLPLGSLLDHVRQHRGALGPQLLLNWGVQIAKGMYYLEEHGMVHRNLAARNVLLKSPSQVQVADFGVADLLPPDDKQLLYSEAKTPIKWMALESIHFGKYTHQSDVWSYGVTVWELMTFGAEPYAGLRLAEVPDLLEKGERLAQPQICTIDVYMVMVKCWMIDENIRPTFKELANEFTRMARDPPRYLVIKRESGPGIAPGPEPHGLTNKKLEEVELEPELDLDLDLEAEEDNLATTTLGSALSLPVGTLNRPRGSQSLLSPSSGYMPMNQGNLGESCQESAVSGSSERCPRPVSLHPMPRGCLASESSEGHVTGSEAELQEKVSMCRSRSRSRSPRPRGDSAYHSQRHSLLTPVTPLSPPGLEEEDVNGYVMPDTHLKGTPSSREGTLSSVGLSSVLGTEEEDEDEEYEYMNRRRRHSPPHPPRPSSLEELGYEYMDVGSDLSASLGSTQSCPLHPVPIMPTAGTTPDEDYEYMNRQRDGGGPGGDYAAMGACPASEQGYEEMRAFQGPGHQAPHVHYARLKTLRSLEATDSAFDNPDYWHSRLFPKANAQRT
T9 sequence (P11362 22-822): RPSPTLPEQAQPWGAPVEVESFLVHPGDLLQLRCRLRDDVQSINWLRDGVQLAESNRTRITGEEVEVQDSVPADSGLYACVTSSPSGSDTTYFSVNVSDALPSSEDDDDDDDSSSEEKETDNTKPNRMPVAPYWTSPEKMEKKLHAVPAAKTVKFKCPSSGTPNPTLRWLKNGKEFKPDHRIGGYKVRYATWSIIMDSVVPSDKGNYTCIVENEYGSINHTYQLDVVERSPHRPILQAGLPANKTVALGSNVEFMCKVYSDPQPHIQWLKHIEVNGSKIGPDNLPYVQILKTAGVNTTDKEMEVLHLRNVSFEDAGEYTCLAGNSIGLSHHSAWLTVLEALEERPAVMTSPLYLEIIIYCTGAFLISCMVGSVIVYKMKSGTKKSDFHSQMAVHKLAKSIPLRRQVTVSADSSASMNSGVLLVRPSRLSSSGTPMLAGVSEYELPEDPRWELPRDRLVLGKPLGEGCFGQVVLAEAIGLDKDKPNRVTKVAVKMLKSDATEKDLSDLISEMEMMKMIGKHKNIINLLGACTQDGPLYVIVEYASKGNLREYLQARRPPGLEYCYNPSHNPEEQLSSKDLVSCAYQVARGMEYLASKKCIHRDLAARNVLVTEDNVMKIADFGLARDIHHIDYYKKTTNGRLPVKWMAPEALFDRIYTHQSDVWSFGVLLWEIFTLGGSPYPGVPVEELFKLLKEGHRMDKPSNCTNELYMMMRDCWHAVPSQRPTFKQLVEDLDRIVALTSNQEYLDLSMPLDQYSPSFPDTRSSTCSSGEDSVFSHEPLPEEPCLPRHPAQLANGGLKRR
T14 sequence (Q9UM73 19-1620 L1196M): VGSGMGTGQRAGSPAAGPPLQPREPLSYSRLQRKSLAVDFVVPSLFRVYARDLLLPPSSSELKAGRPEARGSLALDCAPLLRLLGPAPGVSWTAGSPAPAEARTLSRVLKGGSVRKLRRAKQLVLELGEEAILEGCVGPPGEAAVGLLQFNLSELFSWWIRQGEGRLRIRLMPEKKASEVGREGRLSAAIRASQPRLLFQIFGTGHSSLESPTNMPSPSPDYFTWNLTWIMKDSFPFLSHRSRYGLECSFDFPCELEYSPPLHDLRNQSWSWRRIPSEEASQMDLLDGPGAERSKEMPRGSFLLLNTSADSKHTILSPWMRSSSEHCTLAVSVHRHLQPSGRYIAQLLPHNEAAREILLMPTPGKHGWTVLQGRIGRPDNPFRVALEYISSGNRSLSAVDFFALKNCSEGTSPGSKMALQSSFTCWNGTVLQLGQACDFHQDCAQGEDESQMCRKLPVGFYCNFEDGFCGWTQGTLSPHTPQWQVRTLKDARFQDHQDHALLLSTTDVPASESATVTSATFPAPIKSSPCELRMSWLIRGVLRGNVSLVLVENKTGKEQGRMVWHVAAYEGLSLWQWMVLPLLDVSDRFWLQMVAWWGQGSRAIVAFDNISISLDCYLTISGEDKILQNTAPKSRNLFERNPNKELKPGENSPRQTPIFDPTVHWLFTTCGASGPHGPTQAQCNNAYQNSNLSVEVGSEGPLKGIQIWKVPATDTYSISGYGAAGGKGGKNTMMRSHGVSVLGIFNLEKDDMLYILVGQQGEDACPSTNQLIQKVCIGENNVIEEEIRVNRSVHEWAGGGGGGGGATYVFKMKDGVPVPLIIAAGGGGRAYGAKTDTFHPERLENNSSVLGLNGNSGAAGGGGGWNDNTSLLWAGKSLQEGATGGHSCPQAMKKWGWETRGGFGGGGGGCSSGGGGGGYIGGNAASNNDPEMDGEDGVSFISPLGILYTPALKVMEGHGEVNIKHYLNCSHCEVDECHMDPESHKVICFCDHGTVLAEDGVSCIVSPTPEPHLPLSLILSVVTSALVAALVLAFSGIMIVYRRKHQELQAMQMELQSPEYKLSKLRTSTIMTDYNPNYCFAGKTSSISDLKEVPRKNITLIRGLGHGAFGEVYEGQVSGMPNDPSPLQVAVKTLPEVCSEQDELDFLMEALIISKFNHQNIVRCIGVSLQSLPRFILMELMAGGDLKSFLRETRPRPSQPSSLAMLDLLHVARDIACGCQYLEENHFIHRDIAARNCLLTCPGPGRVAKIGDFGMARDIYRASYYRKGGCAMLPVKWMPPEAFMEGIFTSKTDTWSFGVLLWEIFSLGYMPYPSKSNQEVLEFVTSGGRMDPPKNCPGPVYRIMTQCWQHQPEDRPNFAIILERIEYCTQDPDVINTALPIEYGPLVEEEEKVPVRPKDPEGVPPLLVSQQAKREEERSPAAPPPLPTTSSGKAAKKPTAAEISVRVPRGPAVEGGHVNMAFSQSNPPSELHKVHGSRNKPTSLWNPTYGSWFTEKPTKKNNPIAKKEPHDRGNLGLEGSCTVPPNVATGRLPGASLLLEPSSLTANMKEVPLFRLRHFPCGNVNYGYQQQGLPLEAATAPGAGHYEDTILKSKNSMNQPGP
T7 sequence (P16591 whole entry): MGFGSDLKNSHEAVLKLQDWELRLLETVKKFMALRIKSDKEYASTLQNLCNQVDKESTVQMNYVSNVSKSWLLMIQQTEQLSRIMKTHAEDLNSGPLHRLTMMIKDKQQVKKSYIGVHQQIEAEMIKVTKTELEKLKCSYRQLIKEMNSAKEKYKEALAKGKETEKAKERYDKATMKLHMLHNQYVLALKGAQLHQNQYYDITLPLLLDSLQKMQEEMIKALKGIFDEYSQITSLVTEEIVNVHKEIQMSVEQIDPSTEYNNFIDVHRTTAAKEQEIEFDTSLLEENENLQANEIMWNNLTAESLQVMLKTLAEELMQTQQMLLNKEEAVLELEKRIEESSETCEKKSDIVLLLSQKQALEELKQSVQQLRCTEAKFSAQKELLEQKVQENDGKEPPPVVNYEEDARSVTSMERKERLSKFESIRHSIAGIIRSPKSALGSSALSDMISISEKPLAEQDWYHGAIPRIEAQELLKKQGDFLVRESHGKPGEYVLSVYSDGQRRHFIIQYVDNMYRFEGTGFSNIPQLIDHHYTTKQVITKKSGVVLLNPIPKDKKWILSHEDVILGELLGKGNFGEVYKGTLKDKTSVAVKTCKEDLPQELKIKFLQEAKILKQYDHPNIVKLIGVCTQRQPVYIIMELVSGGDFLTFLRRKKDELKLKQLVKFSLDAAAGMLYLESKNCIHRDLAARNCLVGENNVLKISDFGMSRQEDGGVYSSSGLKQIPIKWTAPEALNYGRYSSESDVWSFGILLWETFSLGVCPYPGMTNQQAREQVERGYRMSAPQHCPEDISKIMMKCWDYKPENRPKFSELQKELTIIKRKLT
T8 sequence (P06241 whole entry): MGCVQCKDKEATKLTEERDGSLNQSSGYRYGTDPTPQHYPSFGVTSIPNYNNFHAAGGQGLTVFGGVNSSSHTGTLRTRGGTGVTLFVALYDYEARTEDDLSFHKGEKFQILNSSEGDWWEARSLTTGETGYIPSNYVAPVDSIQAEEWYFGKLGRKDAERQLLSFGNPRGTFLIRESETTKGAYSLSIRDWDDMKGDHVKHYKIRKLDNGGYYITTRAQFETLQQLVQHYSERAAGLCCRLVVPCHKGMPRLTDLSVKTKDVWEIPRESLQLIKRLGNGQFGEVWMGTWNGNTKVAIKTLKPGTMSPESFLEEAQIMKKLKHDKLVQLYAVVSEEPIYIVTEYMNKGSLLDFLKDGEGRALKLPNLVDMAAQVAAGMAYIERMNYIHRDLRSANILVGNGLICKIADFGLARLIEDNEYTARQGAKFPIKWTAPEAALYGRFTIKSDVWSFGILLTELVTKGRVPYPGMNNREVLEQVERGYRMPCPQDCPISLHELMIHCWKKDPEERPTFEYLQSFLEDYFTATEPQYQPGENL

## CNC(=O)c1cnc(S(C)(=O)=O)nc1N1CCCC(n2nc(-c3ccc(Oc4ccccc4)cc3)c3c(N)ncnc32)C1 (stereo not shown) [Compound 8d, 4-(3-(4-Amino-3-(4-phenoxyphenyl)-1H-pyrazolo[3,4-d]pyrimidin-1-yl)piperidin-1-yl)-N-methyl-2-(methylsulfonyl)pyrimidine-5-carboxamide]
[1]; @1000nM, read-out: %Control
  remaining binding at 1 µM: 32%
[1]; read-out: %Control @1000nM
  remaining binding at 1 µM: 32%
[2]; @1000nM, read-out: %Control
  remaining binding at 1 µM: 100%
[2]; read-out: %Control @1000nM
  remaining binding at 1 µM: 100%
[3]; @1000nM, read-out: %Control
  remaining binding at 1 µM: 93%
[3]; read-out: %Control @1000nM
  remaining binding at 1 µM: 93%
[4]; @1000nM
  difference in %Control versus compound Ib at 1 µM: 47%
[4]; @1000nM, read-out: %Control
  remaining binding at 1 µM: 87%
[4]; read-out: %Control @1000nM
  remaining binding at 1 µM: 87%
[5]; @1000nM
  difference in %Control versus compound Ib at 1 µM: 0%
[5]; @1000nM, read-out: %Control
  remaining binding at 1 µM: 100%
[5]; read-out: %Control @1000nM
  remaining binding at 1 µM: 100%
[6]; @1000nM, ITK
  difference in %Control versus compound Ib at 1 µM: 66%
[6]; @1000nM, ITK, read-out: %Control
  remaining binding at 1 µM: 81%
[6]; ITK, read-out: %Control @1000nM
  remaining binding at 1 µM: 81%
[6]; ScanTK, 1 μM
  inhibition at 1 µM: 19%
[7]; @1000nM
  difference in %Control versus compound Ib at 1 µM: 0%
[7]; @1000nM, read-out: %Control
  remaining binding at 1 µM: 100%
[7]; read-out: %Control @1000nM
  remaining binding at 1 µM: 100%
[8]; @1000nM
  difference in % of control versus compound Ib at 1 µM: 5.4%
[8]; @1000nM, read-out: %Control
  remaining binding at 1 µM: 15%
[8]; read-out: %Control @1000nM
  remaining binding at 1 µM: 15%
[9]; @1000nM
  difference in %Control from compound Ib at 1 µM: 45%
[9]; @1000nM, read-out: %Control
  remaining binding at 1 µM: 78%
[9]; read-out: %Control @1000nM
  remaining binding at 1 µM: 78%
[10]; @1000nM, read-out: %Control
  remaining binding at 1 µM: 69%
[10]; read-out: %Control @1000nM
  remaining binding at 1 µM: 69%
[11]; @1000nM, read-out: %Control
  remaining binding at 1 µM: 100%
[11]; read-out: %Control @1000nM
  remaining binding at 1 µM: 100%
[12]; @1000nM
  difference in %Control from compound Ib at 1 µM: 3%
[12]; @1000nM, read-out: %Control
  remaining binding at 1 µM: 80%
[12]; read-out: %Control @1000nM
  remaining binding at 1 µM: 80%
[13]; @1000nM
  % of control difference from compound Ib at 1 µM: 8.9%
[13]; @1000nM, read-out: %Control
  remaining binding at 1 µM: 8.9%
[13]; read-out: %Control @1000nM
  remaining binding at 1 µM: 8.9%
[14]; @1000nM
  difference in % of control vs compound Ib at 1 µM: -21%
[14]; @1000nM, read-out: %Control
  remaining binding at 1 µM: 79%
[14]; read-out: %Control @1000nM
  remaining binding at 1 µM: 79%
[15]; @1000nM, read-out: %Control
  remaining binding at 1 µM: 6.5%
[15]; read-out: %Control @1000nM
  remaining binding at 1 µM: 6.5%
[16]; @1000nM
  difference in %Control versus compound Ib at 1 µM: 33%
[16]; @1000nM, read-out: %Control
  remaining binding at 1 µM: 85%
[16]; read-out: %Control @1000nM
  remaining binding at 1 µM: 85%
[17]; @1000nM
  difference in %Control from compound Ib at 1 µM: 28%
[17]; @1000nM, read-out: %Control
  remaining binding at 1 µM: 100%
[17]; read-out: %Control @1000nM
  remaining binding at 1 µM: 100%
